In BindingDB's records for doi:10.1021/jm00150a026 (1985):

biological target: Dihydrofolate reductase (Escherichia coli, UniProt P0ABQ4); test: Inhibition of Escherichia coli dihydrofolate reductase.
Sequence (P0ABQ4 whole entry, looked up): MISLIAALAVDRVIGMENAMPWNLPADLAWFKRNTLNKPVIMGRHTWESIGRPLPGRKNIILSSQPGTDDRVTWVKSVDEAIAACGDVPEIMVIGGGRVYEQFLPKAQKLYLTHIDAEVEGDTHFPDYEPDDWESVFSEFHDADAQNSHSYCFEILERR

CC(C)(C)c1cccc(OCc2cccc(N3C(N)=NC(N)=NC3(C)C)c2)c1 was tested. Which Ki did it give?
Its Ki is 871 nM.

How did the Ki turn out when CCCCCCCCCCCCOc1cccc(N2C(N)=NC(N)=NC2(C)C)c1 was run?
The Ki was 1320 nM.

CC1(C)N=C(N)N=C(N)N1c1cccc(OCc2ccc(Cl)c(Cl)c2)c1 was tested. Which Ki did it give?
The Ki was 708 nM.

CC1(C)N=C(N)N=C(N)N1c1cccc(COc2cccc(NC(N)=S)c2)c1 was tested. Which Ki did it give?
Its Ki is 676 nM.

How did the Ki turn out when CC1(C)N=C(N)N=C(N)N1c1cccc(COc2cccc(Cl)c2)c1 [1-[3-(3-Chloro-phenoxymethyl)-phenyl]-6,6-dimethyl-1,6-dihydro-[1,3,5]triazine-2,4-diamine] was run?
Its Ki is 977 nM.

CCc1cccc(OCc2cccc(N3C(N)=NC(N)=NC3(C)C)c2)c1 [1-[3-(3-Ethyl-phenoxymethyl)-phenyl]-6,6-dimethyl-1,6-dihydro-[1,3,5]triazine-2,4-diamine] was tested. Which Ki did it give?
Its Ki is 1120 nM.

For COc1cccc(OCc2cccc(N3C(N)=NC(N)=NC3(C)C)c2)c1 [1-[3-(3-Methoxy-phenoxymethyl)-phenyl]-6,6-dimethyl-1,6-dihydro-[1,3,5]triazine-2,4-diamine], which Ki is on record?
The Ki was 955 nM.

For CC1(C)N=C(N)N=C(N)N1c1cccc(COc2cccc(C#N)c2)c1 [3-[3-(4,6-Diamino-2,2-dimethyl-2H-[1,3,5]triazin-1-yl)-benzyloxy]-benzonitrile], which Ki is on record?
The Ki was 891 nM.

How did the Ki turn out when Cc1cccc(OCc2cccc(N3C(N)=NC(N)=NC3(C)C)c2)c1 [6,6-Dimethyl-1-(3-m-tolyloxymethyl-phenyl)-1,6-dihydro-[1,3,5]triazine-2,4-diamine] was run?
Its Ki is 537 nM.

How did the Ki turn out when CCCCCCCCCCCCCCOc1cccc(N2C(N)=NC(N)=NC2(C)C)c1 [6,6-Dimethyl-1-(3-tetradecyloxy-phenyl)-1,6-dihydro-[1,3,5]triazine-2,4-diamine] was run?
Its Ki is 1410 nM.

CCCCCCCCCCCOc1cccc(N2C(N)=NC(N)=NC2(C)C)c1 [6,6-Dimethyl-1-(3-undecyloxy-phenyl)-1,6-dihydro-[1,3,5]triazine-2,4-diamine] was tested. Which Ki did it give?
Its Ki is 646 nM.

With CC1(C)N=C(N)N=C(N)N1c1cccc(COc2cccc(CO)c2)c1 [{3-[3-(4,6-Diamino-2,2-dimethyl-2H-[1,3,5]triazin-1-yl)-benzyloxy]-phenyl}-methanol] as the molecule, how does the Ki read?
The Ki was 646 nM.

With CC1(C)N=C(N)N=C(N)N1c1cccc(COc2cccc(NC(N)=O)c2)c1 [{3-[3-(4,6-Diamino-2,2-dimethyl-2H-[1,3,5]triazin-1-yl)-benzyloxy]-phenyl}-urea] as the molecule, how does the Ki read?
Its Ki is 1230 nM.
